US4789667A, “External pharmaceutical composition and methods of use” (priority 1984, dated 1988)
Like-named read-outs stand apart in the source and are kept apart here.

Key:
[1] = system: carrageenan-induced edema; experiment: Carrageenan-induced edema inhibiting effect of betamethasone valerate ointment; type: in vivo; settings: rat paw, 0.15 part betamethasone valerate, 9.85 parts enhancer, vs gel ointment base
Experimental: The carrageenan-induced edema inhibiting effect of the ointment was examined in accordance with the method of E. Passarella [Arzneim, Forsch. 30 (I), No. 4, pages 647-651 (1980)]. Specifically, 0.1 ml of a 1% carrageenan suspension in 0.9% NaCl solution was injected into the tip of the right paw of each rat (body weight 150-175 g). The volume of the paw was measured before the administation of carrageenan and 3, 5 and 6 hours after the carrageenan administration by a mercury displacement device. The ointment was well rubbed into the inflamed site in an amount of 100 mg.
These ointments were applied to the tip of the paw, and their edema inhibiting effects were examined.
The percent edema inhibitions were calculated on the basis of the edema formation ratio of a rat to which only the gel ointment base was administered.

serum calcium level = type: in vivo
Experimental: This nasal drop contained 15 units/50 microliters of calcitonin. The nasal drop in a dose of 50 microliters was administered to the nasal cavity of a New Zealand rabbit (clean). The calcium concentration in the serum after administration was measured by using a calcium measuring kit (Iatoron Co.).
They were individually administered to the nasal cavity of a rabbit, and the concentration of calcium in the serum was measured.

[2] = Drug diffusion through egg shell membrane in diffusion cell with dodecyl L-pyroglutamate; settings: control without enhancer = 100; drug 0.05%, dodecyl L-pyroglutamate 1.0% in donor side, 37° C

SMILES	Edema inhibition ([1]; 3 hrs.) [%]	Edema inhibition ([1]; 6 hrs.) [%]	Edema inhibition ([1]; 9 hrs.) [%]	Percent decrease of the serum calcium level from that before administration (serum calcium level; 1 h) [%]	Percent decrease of the serum calcium level from that before administration (serum calcium level; 2 h) [%]	Percent decrease of the serum calcium level from that before administration (serum calcium level; 3 h) [%]	Percent decrease of the serum calcium level from that before administration (serum calcium level; 5 h) [%]	Relative amount of permeation after 30 minutes [2]
CCCCCCCCCCOC(=O)C1CCC(=O)N1 (racemic) [Compound (102), Decyl DL-pyroglutamate]	16.3	39.7	38.3	–	–	–	–	–
CCCCCCCCCCCOC(=O)C1CCC(=O)N1 (racemic) [Compound (104), Undecyl DL-pyroglutamate]	20.3	40.1	35.4	–	–	–	–	–
CCCCCCCCCCCCOC(=O)C1CCC(=O)N1 (racemic) [Compound (106), Dodecyl DL-pyroglutamate]	17.4	40.1	40.0	–	–	–	–	–
CCCCCCCCCCCCCOC(=O)C1CCC(=O)N1 (racemic) [Compound (108), Tridecyl DL-pyroglutamate]	18.8	35.3	38.1	–	–	–	–	–
CCCCCCCCCCCCCCOC(=O)C1CCC(=O)N1 (racemic) [Compound (110), Tetradecyl DL-pyroglutamate]	17.4	38.0	38.6	–	–	–	–	–
O=C1CCC(C(=O)O)N1 (racemic) [DL-Pyroglutamic acid]	10.8	11.4	15.2	2.0	1.0	0	0	–
CCCCCCCCCCCCCCCCCCCCOC(=O)C1CCC(=O)N1 (racemic) [Eicosanyl DL-pyroglutamate]	9.2	11.1	16.7	–	–	–	–	–
CCOC(=O)C1CCC(=O)N1 (racemic) [Ethyl DL-pyroglutamate]	9.5	10.2	12.1	–	–	–	–	–
CCCCCCCCCCCCCCCCCOC(=O)C1CCC(=O)N1 (racemic) [Heptadecyl DL-pyroglutamate]	10.5	12.8	14.8	–	–	–	–	–
CCCCCCCOC(=O)C1CCC(=O)N1 (racemic) [Heptyl DL-pyroglutamate]	10.7	10.9	9.5	–	–	–	–	–
CCCCCCOC(=O)C1CCC(=O)N1 (racemic) [Hexyl DL-pyroglutamate]	11.2	11.5	11.0	–	–	–	–	–
CCCCCCCCCCCCCCCCCCOC(=O)C1CCC(=O)N1 (racemic) [Octadecyl DL-pyroglutamate]	9.6	13.0	15.6	–	–	–	–	–
CN(C)CCCN1c2ccccc2Sc2ccc(Cl)cc21 [Chlorpromazine]	–	–	–	–	–	–	–	124
CCCCCCCCCCOC(=O)[C@@H]1CCC(=O)N1 [Compound (112), Decyl L-pyroglutamate]	18.6	38.9	37.4	–	–	–	–	–
CCCCCCCCCCCOC(=O)[C@@H]1CCC(=O)N1 [Compound (114), Undecyl L-pyroglutamate]	20.2	38.5	37.3	–	–	–	–	–
CCCCCCCCCCCCOC(=O)[C@@H]1CCC(=O)N1 [Compound (116), Dodecyl L-pyroglutamate]	19.8	40.2	40.3	–	–	–	–	–
CCCCCCCCCCCCCOC(=O)[C@@H]1CCC(=O)N1 [Compound (118), Tridecyl L-pyroglutamate]	20.0	38.5	36.8	–	–	–	–	–

SMILES	Edema inhibition ([1]; 3 hrs.) [%]	Edema inhibition ([1]; 6 hrs.) [%]	Edema inhibition ([1]; 9 hrs.) [%]	Percent decrease of the serum calcium level from that before administration (serum calcium level; 1 h) [%]	Percent decrease of the serum calcium level from that before administration (serum calcium level; 2 h) [%]	Percent decrease of the serum calcium level from that before administration (serum calcium level; 3 h) [%]	Percent decrease of the serum calcium level from that before administration (serum calcium level; 5 h) [%]	Relative amount of permeation after 30 minutes [2]
CCCCCCCCCCCCCCOC(=O)[C@@H]1CCC(=O)N1 [Compound (120), Tetradecyl L-pyroglutamate]	17.8	38.5	39.6	–	–	–	–	–
CCC=CCCCCCCCCOC(=O)[C@@H]1CCC(=O)N1 [Compound (220), 9-Dodecenyl L-pyroglutamate]	18.3	37.7	36.9	–	–	–	–	–
CC1CCC(C(C)C)C(OC(=O)[C@@H]2CCC(=O)N2)C1 (stereo partly drawn) [Compound (308), Menthyl L-pyroglutamate]	17.0	38.0	40.2	–	–	–	–	–
CC1(C)C2CCC1(C)C(OC(=O)[C@@H]1CCC(=O)N1)C2 (stereo partly drawn) [Compound (310), Bornyl L-pyroglutamate]	17.0	39.4	40.2	–	–	–	–	–
CCCCCCCCCCCCCCCCCCCCOC(=O)[C@@H]1CCC(=O)N1 [Eicosanyl L-pyroglutamate]	9.3	10.5	15.6	–	–	–	–	–
C[C@]12CC[C@@H]3c4ccc(O)cc4CC[C@H]3[C@@H]1CC[C@@H]2O [Estradiol]	–	–	–	–	–	–	–	203
CCOC(=O)[C@@H]1CCC(=O)N1 [Ethyl L-pyroglutamate]	10.4	12.7	17.2	–	–	–	–	–
COC1=CC(=O)C[C@@H](C)[C@]12Oc1c(Cl)c(OC)cc(OC)c1C2=O [Griseofulvin]	–	–	–	–	–	–	–	221
CCCCCCCCCCCCCCCCCOC(=O)[C@@H]1CCC(=O)N1 [Heptadecyl L-pyroglutamate]	11.2	10.6	16.5	–	–	–	–	–
CCCCCCCOC(=O)[C@@H]1CCC(=O)N1 [Heptyl L-pyroglutamate]	9.3	12.8	13.7	–	–	–	–	–
CCCCCCOC(=O)[C@@H]1CCC(=O)N1 [Hexyl L-pyroglutamate]	10.0	11.5	13.8	–	–	–	–	–
COc1ccc2c(c1)c(CC(=O)O)c(C)n2C(=O)c1ccc(Cl)cc1 [Indomethacin]	–	–	–	–	–	–	–	220
O=C1CC[C@@H](C(=O)O)N1 [L-Pyroglutamic acid]	10.3	11.2	16.3	1.9	0.7	0	0	–
C[C@](N)(Cc1ccc(O)c(O)c1)C(=O)O [Methyldopa]	–	–	–	–	–	–	–	153
CCCCCCCCCCCCCCCCCCOC(=O)[C@@H]1CCC(=O)N1 [Octadecyl L-pyroglutamate]	10.0	11.4	14.4	–	–	–	–	–
CCCCC[C@H](O)/C=C/[C@@H]1[C@@H](C/C=C\CCCC(=O)O)[C@@H](O)C[C@H]1O [Prostaglandin F2]	–	–	–	–	–	–	–	166
O=C(O)c1ccccc1O [Salicyclic acid]	–	–	–	–	–	–	–	208
